Reference: US10538487B2, “Sulfonylureas and related compounds and use of same” (priority 2015, dated 2020)
Read-outs that look alike come from different tables or passages of the source.

Assays:
Assay type in all cases: cell-based
NLRP3 inflammasome [1] = target: T1, NLRP3 inflammasome (Homo sapiens, UniProt Q96P20); experiment: Inhibition of IL-1β release, NLRP3 inflammasome activation assay in HMDM
Outline: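 Primary human monocyte-derived macrophages from CD14+ buffy-coat monocytes, seeded at 1×10^5/ml. Compound added in serum-free medium 30 min before NLRP3 stimulation (ATP, nigericin, LeuLeu-OMe or MSU). Cytokine in supernatants measured by ELISA or AlphaLISA; cell death by LDH release relative to full lysis.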

NLRP3 inflammasome [2] = target: T1, NLRP3 inflammasome; experiment: Inhibition of IL-18 release, NLRP3 inflammasome activation assay in HMDM; conditions: class symbols
Description: The following assays can be used to determine inhibitory activity of test compounds on the NLRP3 inflammasome using common stimuli such as adenosine triphosphate, nigericin, LeuLeu-OMe or monosodium urate crystals (MSU).
To generate HMDM, human monocytes are isolated from buffy coat blood using Ficoll-Plaque Plus (GE Healthcare) and density centrifugation. CD14^+ cell selection is performed using MACS magnetic beads (Miltenyl Biotec).
HMDM are seeded at 1×10^5/ml. […] Medium is removed and replaced with serum free medium (SFM) containing test compound 30 min prior to NLRP3 stimulation. […] ATP can be sourced from Sigma Aldrich, nigericin and MSU from Invivogen and LeuLeu-Ome from Chem-Impex International.
For ELISA and cell death assays cells are seeded in 96 well plates. Supernatants are removed and analysed using ELISA kits according to the manufacturer's instructions (DuoSet® R&D Systems, ReadySetGo!® eBioscience, BD OptEIA™, or Perkin Elmer AlphaLISA®). Cell death is assessed by measurement of LDH release relative to a 100% cell lysis control using the CytoTox96® non-radioactive cytotoxicity assay (Promega).

NLRP3 inflammasome [3] = target: NLRP3 inflammasome (Mus musculus, UniProt Q8R4B8); experiment: Inhibition of IL-1β release, NLRP3 inflammasome activation assay in BMDM
Outline: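 C57BL/6 mouse BMDM seeded at 1×10^5/ml were primed with E. coli K12 LPS for 3 h, then given compound in serum-free medium 30 min before NLRP3 stimulation (ATP, nigericin, LeuLeu-OMe or MSU). Released IL-1β in supernatants was measured by ELISA, and cell death by LDH release relative to full lysis.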

[4] = inhibition of IL-1β release, class symbols, read-out: Avg. IL-1β IC50 HMDM
[5] = inhibition of IL-1β release, class symbols, read-out: Avg. IL-1β IC50 Murine BMDM
[6] = select compounds of the first aspect (Table 10), read-out: BMDM IC50 vs NLRP3
[7] = select compounds of the first aspect (Table 10), read-out: HMDM IC50 vs NLRP3
[8] = inhibition of IL-1β release, numeric bounds, read-out: Avg. IL-1β IC50 Murine BMDM
[9] = inhibition of IL-1β release, numeric bounds, read-out: Avg. IL-1β IC50 HMDM
[10] = commercial compounds (Table 9), read-out: BMDM IC50 vs NLRP3
[11] = commercial compounds (Table 9), read-out: HMDM IC50 vs NLRP3

T1 sequence (Q96P20 whole entry): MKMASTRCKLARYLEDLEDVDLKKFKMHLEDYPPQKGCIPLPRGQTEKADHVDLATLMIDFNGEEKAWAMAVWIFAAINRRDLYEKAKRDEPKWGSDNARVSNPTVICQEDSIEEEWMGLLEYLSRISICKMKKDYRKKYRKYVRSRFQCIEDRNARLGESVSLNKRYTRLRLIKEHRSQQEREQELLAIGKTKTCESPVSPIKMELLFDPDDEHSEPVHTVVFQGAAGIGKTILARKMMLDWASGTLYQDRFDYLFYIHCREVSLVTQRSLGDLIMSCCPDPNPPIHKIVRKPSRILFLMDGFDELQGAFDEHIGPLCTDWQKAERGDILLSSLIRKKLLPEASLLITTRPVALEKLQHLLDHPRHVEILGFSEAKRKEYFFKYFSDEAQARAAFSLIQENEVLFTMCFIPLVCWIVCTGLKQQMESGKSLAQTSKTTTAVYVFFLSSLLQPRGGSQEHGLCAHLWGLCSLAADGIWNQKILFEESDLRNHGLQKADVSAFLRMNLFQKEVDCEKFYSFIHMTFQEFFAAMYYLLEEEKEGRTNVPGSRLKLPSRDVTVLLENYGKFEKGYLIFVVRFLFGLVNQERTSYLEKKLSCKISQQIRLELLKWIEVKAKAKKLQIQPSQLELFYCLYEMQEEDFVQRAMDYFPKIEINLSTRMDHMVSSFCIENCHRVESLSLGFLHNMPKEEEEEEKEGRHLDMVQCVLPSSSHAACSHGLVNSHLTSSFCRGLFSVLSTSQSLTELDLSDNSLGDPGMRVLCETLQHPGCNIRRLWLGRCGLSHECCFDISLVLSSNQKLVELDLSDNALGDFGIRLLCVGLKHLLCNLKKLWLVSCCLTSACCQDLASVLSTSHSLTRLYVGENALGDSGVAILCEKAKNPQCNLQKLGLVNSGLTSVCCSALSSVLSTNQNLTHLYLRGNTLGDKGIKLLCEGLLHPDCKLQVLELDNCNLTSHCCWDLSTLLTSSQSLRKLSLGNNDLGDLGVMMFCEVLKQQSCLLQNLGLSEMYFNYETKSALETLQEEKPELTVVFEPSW
NLRP3 inflammasome (Mus musculus, UniProt Q8R4B8), sequence (Q8R4B8 whole entry): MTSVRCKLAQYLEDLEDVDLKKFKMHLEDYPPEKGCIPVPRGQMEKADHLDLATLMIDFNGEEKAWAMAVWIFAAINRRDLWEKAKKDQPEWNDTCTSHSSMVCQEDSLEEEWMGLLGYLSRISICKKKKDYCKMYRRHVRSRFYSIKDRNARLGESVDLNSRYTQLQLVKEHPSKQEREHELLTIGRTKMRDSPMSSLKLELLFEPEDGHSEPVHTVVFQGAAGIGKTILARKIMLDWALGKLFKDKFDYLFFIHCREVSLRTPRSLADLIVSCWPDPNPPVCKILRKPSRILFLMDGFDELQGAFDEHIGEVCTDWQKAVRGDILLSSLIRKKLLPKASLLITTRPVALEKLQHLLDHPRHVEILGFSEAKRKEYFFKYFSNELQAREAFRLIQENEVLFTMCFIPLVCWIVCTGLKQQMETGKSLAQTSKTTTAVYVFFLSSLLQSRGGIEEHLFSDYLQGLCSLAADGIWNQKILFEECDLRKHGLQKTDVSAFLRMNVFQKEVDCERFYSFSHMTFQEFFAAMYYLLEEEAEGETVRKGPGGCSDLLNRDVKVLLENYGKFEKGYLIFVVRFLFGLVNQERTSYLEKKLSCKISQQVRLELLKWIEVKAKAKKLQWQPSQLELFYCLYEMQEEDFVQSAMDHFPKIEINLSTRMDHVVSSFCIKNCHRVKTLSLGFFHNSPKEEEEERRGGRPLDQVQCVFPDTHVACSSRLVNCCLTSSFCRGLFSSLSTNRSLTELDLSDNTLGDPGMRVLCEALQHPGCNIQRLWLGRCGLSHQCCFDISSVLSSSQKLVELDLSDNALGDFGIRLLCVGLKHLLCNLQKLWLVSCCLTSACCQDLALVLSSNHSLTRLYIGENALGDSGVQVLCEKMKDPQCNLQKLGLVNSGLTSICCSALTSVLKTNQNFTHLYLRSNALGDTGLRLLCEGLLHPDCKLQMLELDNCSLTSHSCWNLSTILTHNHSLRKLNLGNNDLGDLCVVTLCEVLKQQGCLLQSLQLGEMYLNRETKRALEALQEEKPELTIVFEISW

Structure (SMILES)	IC50 (NLRP3 inflammasome [1]; [4]) [nM]	IC50 (NLRP3 inflammasome [3]; [5]) [nM]	also measured
CC(C)(C)n1ccc(S(=O)(=O)NC(=O)Nc2c3c(cc4c2CCC4)CCC3)n1 [1-(tert-butyl)-N-((1,2,3,5,6,7-hexahydro-s-indacen-4-yl)carbamoyl)-1H-pyrazole-3-sulfonamide]	< 100		IC50 (NLRP3 inflammasome [2]): < 100 nM
Cc1ccc(S(=O)(=O)NC(=O)Nc2c3c(cc4c2CCC4)CCC3)o1 [N-((1,2,3,5,6,7-hexahydro-s-indacen-4-yl)carbamoyl)-5-methylfuran-2-sulfonamide]	< 100		IC50 (NLRP3 inflammasome [2]): < 100 nM
Cc1ccc(S(=O)(=O)NC(=O)Nc2c3c(cc4c2CCC4)CCC3)s1 [N-((1,2,3,5,6,7-hexahydro-s-indacen-4-yl)carbamoyl)-5-methylthiophene-2-sulfonamide]	< 100		IC50 (NLRP3 inflammasome [2]): < 100 nM
CC(C)(O)c1cc(S(=O)(=O)NC(=O)Nc2c3c(cc4c2CCC4)CCC3)nn1Cc1ccccc1 [1-benzyl-N-((1,2,3,5,6,7-hexahydro-s-indacen-4-yl)carbamoyl)-5-(2-hydroxypropan-2-yl)-1H-pyrazole-3-sulfonamide]	< 100		IC50 (NLRP3 inflammasome [2]): < 100 nM
CC(C)c1cc(Cl)cc(C(C)C)c1NC(=O)NS(=O)(=O)c1cc2ccccc2o1 [N-((4-chloro-2,6-diisopropylphenyl)carbamoyl)benzofuran-2-sulfonamide]	< 100	< 100	
CCc1cc(Cl)cc(CC)c1NC(=O)NS(=O)(=O)c1ccn(C(C)C)n1 [N-((4-chloro-2,6-diethylphenyl)carbamoyl)-1-isopropyl-1H-pyrazole-3-sulfonamide]	< 10000	< 10000	
O=C(Nc1c2c(cc3c1CCC3)CCC2)NS(=O)(=O)c1ccc(Cl)cc1 [drawing 366]			IC50 (NLRP3 inflammasome [3]; [6]): 30 nM; IC50 (NLRP3 inflammasome [1]; [7]): 300 nM
O=C(Nc1c2c(cc3c1CCC3)CCC2)NS(=O)(=O)c1ncn(Cc2ccccc2)n1 [1-benzyl-N-((1,2,3,5,6,7-hexahydro-s-indacen-4-yl)carbamoyl)-1H-1,2,4-triazole-3-sulfonamide]	< 100		IC50 (NLRP3 inflammasome [2]): < 100 nM
CC(=O)c1ccc(S(=O)(=O)NC(=O)Nc2c3c(cc4c2CCC4)CCC3)cc1 [drawing 363]			IC50 (NLRP3 inflammasome [3]; [6]): 36 nM; IC50 (NLRP3 inflammasome [1]; [7]): 310 nM
COc1ccc2c(c1)C(=O)N(CCc1ccc(S(N)(=O)=O)cc1)C(=O)C2(C)C [4-(2-(7-methoxy-4,4-dimethyl-1,3-dioxo-3,4-dihydroisoquinolin-2(1H)-yl)ethyl)benzenesulfonamide, reference compound]			IC50 (NLRP3 inflammasome [3]; [8]): > 10000 nM; IC50 (NLRP3 inflammasome [1]; [9]): > 200000 nM
Cc1c2c(c(NC(=O)NS(=O)(=O)c3cc(C(C)(C)O)co3)c3c1CCC3)CCC2 [4-(2-hydroxypropan-2-yl)-N-((8-methyl-1,2,3,5,6,7-hexahydro-s-indacen-4-yl)carbamoyl)furan-2-sulfonamide]	< 100	< 100	
O=C(Nc1c2c(cc3c1CCC3)CCC2)NS(=O)(=O)c1cccc(C(F)(F)F)c1 [N-((1,2,3,5,6,7-hexahydro-s-indacen-4-yl)carbamoyl)-3-(trifluoromethyl)benzenesulfonamide]	< 100	< 1000	
CC(C)(O)c1coc(S(=O)(=O)NC(=O)Nc2c3c(c(Br)c4c2CCC4)CCC3)c1 [N-((8-bromo-1,2,3,5,6,7-hexahydro-s-indacen-4-yl)carbamoyl)-4-(2-hydroxypropan-2-yl)furan-2-sulfonamide]	< 100	< 100	
Nc1ccc(S(=O)(=O)NC(=O)Nc2c3c(cc4c2CCC4)CCC3)cc1 [4-Amino-N-((1,2,3,5,6,7-hexahydro-s-indacen-4-yl)carbamoyl)benzenesulfonamide]	< 1000	< 100	
COc1ccc2c(c1)C(=O)N(CCc1ccc(S(N)(=O)=O)cc1)C(=O)C2(C)C [Gliquidone precursor, 4-(2-(7-Methoxy-4,4-dimethyl-1,3-dioxo-3,4-dihydroisoquinolin-2(1H)-yl)ethyl)benzenesulfonamide, reference compound]			IC50 (NLRP3 inflammasome [3]; [10]): > 10000 nM; IC50 (NLRP3 inflammasome [1]; [11]): > 200000 nM
Cc1cc(Cl)cc(C)c1NC(=O)NS(=O)(=O)c1ccn(C(C)C)n1 [N-((4-chloro-2,6-dimethylphenyl)carbamoyl)-1-isopropyl-1H-pyrazole-3-sulfonamide]	< 10000		IC50 (NLRP3 inflammasome [3]; [8]): > 10000 nM

Structure (SMILES)	IC50 (NLRP3 inflammasome [1]; [4]) [nM]	IC50 (NLRP3 inflammasome [3]; [5]) [nM]	also measured
O=C(CCCC[C@@H]1SC[C@@H]2NC(=O)N[C@@H]21)NCCCn1cc(CCC(=O)Nc2cccc(S(=O)(=O)NC(=O)Nc3c4c(cc5c3CCC5)CCC4)c2)nn1 [N-(3-(4-(3-((3-(N-((1,2,3,5,6,7-hexahydro-s-indacen-4-yl)carbamoyl)sulfamoyl)phenyl)amino)-3-oxopropyl)-1H-1,2,3-triazol-1-yl)propyl)-5-((3aS,4S,6aR)-2-oxohexahydro-1H-thieno[3,4-d]imidazol-4-yl)pentanamide]	< 10000	< 10000	
CC(C)(O)c1coc(S(=O)(=O)NC(=O)Nc2cc(C(F)(F)F)ccc2C(F)(F)F)c1 [N-((2,5-bis(trifluoromethyl)phenyl)carbamoyl)-4-(2-hydroxypropan-2-yl)furan-2-sulfonamide]	< 10000	< 1000	
CCC1=C(C)CN(C(=O)NCCc2ccc(S(=O)(=O)NC(=O)Nc3c4c(cc5c3CCC5)CCC4)cc2)C1=O [3-Ethyl-N-(4-(N-((1,2,3,5,6,7-hexahydro-s-indacen-4-yl)carbamoyl)sulfamoyl)phenethyl)-4-methyl-2-oxo-2,5-dihydro-1H-pyrrole-1-carboxamide]	< 1000	< 1000	
Cc1cc(C(=O)NCCc2ccc(S(=O)(=O)NC(=O)Nc3c4c(cc5c3CCC5)CCC4)cc2)no1 [drawing 362]			IC50 (NLRP3 inflammasome [3]; [6]): 280 nM; IC50 (NLRP3 inflammasome [1]; [7]): 190 nM
C=C(C)c1coc(S(=O)(=O)NC(=O)Nc2c3c(cc4c2CCC4)CCC3)c1 [N-((1,2,3,5,6,7-hexahydro-s-indacen-4-yl)carbamoyl)-4-(prop-1-en-2-yl)furan-2-sulfonamide]	< 1000	< 1000	
COc1ccc2c(c1)C(=O)N(CCc1ccc(S(=O)(=O)NC(=O)Nc3c4c(cc5c3CCC5)CCC4)cc1)C(=O)C2(C)C [N-((1,2,3,5,6,7-hexahydro-s-indacen-4-yl)carbamoyl)-4-(2-(7-methoxy-4,4-dimethyl-1,3-dioxo-3,4-dihydroisoquinolin-2(1H)-yl)ethyl)benzenesulfonamide]	< 10000	< 1000	
COc1ccc(Cl)cc1C(=O)NCCc1ccc(S(=O)(=O)NC(=O)Nc2c3c(cc4c2CCC4)CCC3)cc1 [drawing 358]			IC50 (NLRP3 inflammasome [3]; [6]): 240 nM; IC50 (NLRP3 inflammasome [1]; [7]): 140 nM
Cc1cc(C)nc(NC(=O)NS(=O)(=O)c2cc(C(C)(C)O)co2)n1 [N-((4,6-dimethylpyrimidin-2-yl)carbamoyl)-4-(2-hydroxypropan-2-yl)furan-2-sulfonamide]			IC50 (NLRP3 inflammasome [3]; [8]): > 10000 nM; IC50 (NLRP3 inflammasome [1]; [9]): > 50000 nM
CC(C)n1ccc(S(=O)(=O)NC(=O)Nc2c(C3CC3)cc(Cl)c3c2CCC3)n1 [N-((7-chloro-5-cyclopropyl-2,3-dihydro-1H-inden-4-yl)carbamoyl)-1-isopropyl-1H-pyrazole-3-sulfonamide]	< 1000	< 1000	
COc1ccc2c(c1)C(=O)N(CCc1ccc(S(=O)(=O)NC(=O)Nc3c4c(cc5c3CCC5)CCC4)cc1)C(=O)C2(C)C [drawing 361]			IC50 (NLRP3 inflammasome [3]; [6]): 260 nM; IC50 (NLRP3 inflammasome [1]; [7]): 2300 nM
CCCNC(=O)NS(=O)(=O)c1ccc(Cl)cc1 [Chlorpropamide, reference compound]			IC50 (NLRP3 inflammasome [3]; [10]): > 200000 nM; IC50 (NLRP3 inflammasome [1]; [11]): > 200000 nM
COc1ccc(Cl)cc1C(=O)NCCc1ccc(S(=O)(=O)NC(=O)Nc2c3c(cc4c2CCC4)CCC3)cc1	< 1000	< 1000	
CC(C)(O)c1coc(S(=O)(=O)NC(=O)Nc2ccc(C(F)(F)F)cc2C(F)(F)F)c1 [N-((2,4-bis(trifluoromethyl)phenyl)carbamoyl)-4-(2-hydroxypropan-2-yl)furan-2-sulfonamide]	< 10000	< 1000	
CC(C)c1cc(Cl)cc(C(C)C)c1NC(=O)NS(=O)(=O)c1cc2ccccc2s1 [N-((4-chloro-2,6-diisopropylphenyl)carbamoyl)benzo[b]thiophene-2-sulfonamide]	< 100	< 1000	
CC(=O)c1ccc(S(=O)(=O)NC(=O)Nc2c3c(cc4c2CCC4)CCC3)cc1 [4-Acetyl-N-((1,2,3,5,6,7-hexahydro-s-indacen-4-yl)carbamoyl)benzenesulfonamide]	< 1000	< 100	
O=C(Nc1c2c(cc3c1CCC3)CCC2)NS(=O)(=O)c1ccc2c(c1)CCC2 [drawing 367]			IC50 (NLRP3 inflammasome [3]; [6]): 50 nM; IC50 (NLRP3 inflammasome [1]; [7]): 1460 nM
